# T1: RNase AM (yciV) (Escherichia coli, UniProt P77766)
# T1 construct: gene rnm; full-length, His-tagged, expressed in E. coli BL21 (DE3) Rosetta with 2,2'-bipyridyl and MnSO4; Ni-NTA and gel filtration
# T1 sequence (P77766 1-293): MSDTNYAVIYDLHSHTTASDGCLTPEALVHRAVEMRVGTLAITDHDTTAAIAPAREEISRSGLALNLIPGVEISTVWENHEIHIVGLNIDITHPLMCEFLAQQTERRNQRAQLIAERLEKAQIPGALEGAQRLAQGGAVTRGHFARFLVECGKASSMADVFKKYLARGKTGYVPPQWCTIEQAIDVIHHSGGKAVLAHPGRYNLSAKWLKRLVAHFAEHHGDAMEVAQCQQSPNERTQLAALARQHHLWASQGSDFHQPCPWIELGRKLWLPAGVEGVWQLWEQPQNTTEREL
# T2: Kl Xrn1 (Kluyveromyces lactis, UniProt Q6CJ09 1-1245)
# T2 sequence: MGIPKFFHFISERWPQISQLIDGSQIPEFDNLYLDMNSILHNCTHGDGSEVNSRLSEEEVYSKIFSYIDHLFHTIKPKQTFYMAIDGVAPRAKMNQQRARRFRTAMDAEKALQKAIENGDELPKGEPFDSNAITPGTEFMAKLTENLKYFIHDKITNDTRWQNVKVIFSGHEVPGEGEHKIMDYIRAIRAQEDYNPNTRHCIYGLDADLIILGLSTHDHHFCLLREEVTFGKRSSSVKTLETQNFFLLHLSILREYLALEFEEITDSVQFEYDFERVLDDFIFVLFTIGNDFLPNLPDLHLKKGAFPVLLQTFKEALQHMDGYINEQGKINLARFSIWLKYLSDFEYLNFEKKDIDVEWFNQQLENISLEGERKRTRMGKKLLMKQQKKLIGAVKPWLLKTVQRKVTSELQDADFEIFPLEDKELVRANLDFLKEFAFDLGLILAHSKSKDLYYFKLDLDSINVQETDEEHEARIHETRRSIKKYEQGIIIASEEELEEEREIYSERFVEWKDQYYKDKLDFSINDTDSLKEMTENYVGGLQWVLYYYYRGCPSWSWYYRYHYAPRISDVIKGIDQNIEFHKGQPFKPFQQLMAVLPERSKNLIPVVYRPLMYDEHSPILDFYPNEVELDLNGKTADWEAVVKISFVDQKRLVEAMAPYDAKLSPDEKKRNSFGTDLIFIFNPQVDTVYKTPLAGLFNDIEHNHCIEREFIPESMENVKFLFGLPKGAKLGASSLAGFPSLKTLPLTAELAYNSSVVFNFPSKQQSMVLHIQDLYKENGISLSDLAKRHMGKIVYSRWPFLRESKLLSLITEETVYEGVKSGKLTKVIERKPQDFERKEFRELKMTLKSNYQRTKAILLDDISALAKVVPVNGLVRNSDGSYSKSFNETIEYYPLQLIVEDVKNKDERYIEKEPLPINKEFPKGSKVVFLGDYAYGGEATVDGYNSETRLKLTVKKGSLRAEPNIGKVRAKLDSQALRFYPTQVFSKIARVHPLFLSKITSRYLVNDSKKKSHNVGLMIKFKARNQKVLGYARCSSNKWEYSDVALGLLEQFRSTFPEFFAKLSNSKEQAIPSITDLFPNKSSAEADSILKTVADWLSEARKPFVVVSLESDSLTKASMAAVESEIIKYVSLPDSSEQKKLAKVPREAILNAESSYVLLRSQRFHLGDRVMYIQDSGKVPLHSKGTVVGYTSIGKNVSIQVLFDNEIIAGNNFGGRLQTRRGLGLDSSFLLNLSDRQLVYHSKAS
# Experiments:
# [1] = biological target: T3, Xrn1 (Kl Xrn1) (Kluyveromyces lactis, UniProt Q6CJ09); assay: inhibition of decay of […]-labelled capped RNA, gel; type: biochemical; conditions: FAD-capped or NAD-capped RNA as substrate
# T3 construct: gene KLLA0_F22385g; recombinant, Ni-NTA purified
# [2] = biological target: T1, RNase AM (yciV); assay: thermal shift assay; type: binding; conditions: Mn2+-loaded enzyme; data not shown
# [3] = biological target: T2, Kl Xrn1; assay: EMSA; stable complex, minimally competed by total yeast RNA; EMSA: 10 mM Tris-HCl pH 7.5, 150 mM KCl, 1.5 mM MgCl2, 0.5 mM DTT, on ice 30 min, 5 pmol RNA with 2.5-7.5 pmol Xrn1, 6% gel in 0.5x TBE; FcRAP: 1x lysis buffer, 4 C, 90 min; conditions: protein: recombinant; tags: C-terminal 6xHis; label: 32P uniform; single strand
molecule,measurement,setting,value
Cc1cc2nc3c(=O)[nH]c(=O)nc-3n(C[C@H](O)[C@H](O)[C@H](O)COP(=O)(O)OP(=O)(O)OC[C@H]3O[C@@H](n4cnc5c(N)ncnc54)[C@H](O)[C@@H]3OP(=O)(O)O)c2cc1C [FAD3′P],inhibition,[1],"the effect was more pronounced with the FAD-capped RNA mimic, FAD3′P"
Cc1cc2nc3c(=O)[nH]c(=O)nc-3n(C[C@H](O)[C@H](O)[C@H](O)COP(=O)(O)OP(=O)(O)OC[C@H]3O[C@@H](n4cnc5c(N)ncnc54)[C@H](O)[C@@H]3O)c2cc1C [FAD],inhibition,[1]; free FAD,inhibition was nevertheless detected when using higher concentration of FAD
same,thermal shift,[2],competent for binding FAD (as determined by thermal shift assay; data not shown)
"AGUUGGUGGUUGUUGUGUGUUUGUGGUUGGUUUGUUUGGC (ssRNA, 5' FAD cap) [FAD-capped RNA (FAD-40)]",binding result,[3],binds
"AGUUGGUGGUUGUUGUGUGUUUGUGGUUGGUUUGUUUGGC (ssRNA, 5' NAD cap) [NAD-capped RNA (NAD-40)]",binding result,[3],binds

# From PMC9410882, “Identification of a novel deFADding activity in human, yeast and bacterial 5′ to 3′ exoribonucleases” (Nucleic Acids Research, 2022)
